Experimental data: patent US5977169A, “Substituted tetronic acids useful for treating HIV and other retroviruses” (priority 1997, dated 1999)
Square brackets hold non-standard residues; d marks the D form. Peptide text beside a SMILES is read from it. * marks the point of attachment. Sta = CC(C)C[C@H](N)[C@@H](O)CC(=O)O; Isovaleryl = CC(C)CC(=O)*

Legend:
[1] = test system: viral reverse transcriptase; settings: literature; cited from earlier work
[2] = molecular target: T1, HIV-1 protease (Human immunodeficiency virus type 1 group M subtype B, UniProt P04585); assay: In vitro HIV protease inhibitory assay (fluorescently labeled substrate, avidin-polystyrene particles); type: biochemical; settings: for inhibition at 3.3 µM: HIV-1 dose 3.3 μM; for inhibition at 10 µM: HIV-1 dose 10.0 μM; for inhibition at 30 µM: HIV-1 dose 30.0 μM
T1 construct: The protease (or proteinase) enzyme, consisting of only 99 amino acids
Procedure, shortened: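 Biotinylated, FITC-labelled peptide substrate cleaved by HIV-1 protease for 1 h at room temperature in the dark, in 0.1 M sodium acetate pH 5.5 with 1.0 M NaCl and 0.05% NP-40. Product separated from substrate with avidin-polystyrene beads and filtration; fluorescence read as percent inhibition at stated compound concentrations.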

[3] = test system: HIV-1IIIB; assay: Inhibition of retroviral replication in human T-cell lines, e.g., MT4 and H9, infected with HIV-1IIIB; type: cell-based
[4] = test system: HIV-I protease; settings: literature; cited from earlier work

SMILES	inhibition at 3.3 µM [2]	inhibition at 10 µM [2]	inhibition at 30 µM [2]	further results
Cc1cn([C@H]2C[C@H](N=[N+]=[N-])[C@@H](CO)O2)c(=O)[nH]c1=O [AZT, 3-azido-3-deoxythymidine]	–	–	–	inhibition of viral reverse transcriptase [1]: known inhibitor of viral reverse transcriptase
CCCC1(CCC)OC(=O)C(C(c2cccc(NS(=O)(=O)c3ccc(C#N)cc3)c2)C2CC2)=C1O (centres unmarked) [IX-14]	113%	111%	119%	inhibition of retroviral replication [3]: found to inhibit retroviral replication
CCCC1(CCC)OC(=O)C(C(c2cccc(NS(=O)(=O)c3cn(C)cn3)c2)C2CC2)=C1O (centres unmarked) [IX-17]	108%	111%	108%	inhibition of retroviral replication [3]: found to inhibit retroviral replication
CCCC1(CCC)OC(=O)C(C(c2cccc(NS(=O)(=O)c3cn(C)cn3)c2)C(C)C)=C1O (centres unmarked) [IX-24, 1H-Imidazole-4-sulfonamide, N-(3-(1-(4-hydroxy-2-oxo-5,5-dipropyl-2,5-dihydro-furan-3-yl)-2-methyl-propyl)-phenyl)-1-methyl-]	102%	101%	102%	inhibition of retroviral replication [3]: found to inhibit retroviral replication
CCCC1(CCC)OC(=O)C(C(c2cccc(NS(=O)(=O)c3nccn3C)c2)C2CC2)=C1O (centres unmarked) [IX-37, 1-Methyl-1H-imidazole-2-sulfonamide, N-(3-(cyclopropyl(2,5-dihydro-4-hydroxy-2-oxo-5,5-dipropyl-3-furanyl)methyl)phenyl)-]	99.2%	100%	96.7%	–
CCCC1(CCC)OC(=O)C(C(c2cccc(NS(=O)(=O)c3ccc4ccccc4n3)c2)C2CC2)=C1O (centres unmarked) [IX-38]	83%	85%	84.8%	–
CCCC1(CCC)OC(=O)C(C(Cc2ccccc2)c2cccc(NS(=O)(=O)c3ccc(C#N)cc3)c2)=C1O (centres unmarked) [IX-39, Benzenesulfonamide, 4-cyano-N-(3-(1-(4-hydroxy-2-oxo-5,5-dipropyl-2,5-dihydro-furan-3-yl)-2-phenyl-ethyl)-phenyl)-]	76.8%	78.1%	106%	–
CCCC1(CCC)OC(=O)C(C(Cc2ccccc2)c2cccc(NS(=O)(=O)c3cn(C)cn3)c2)=C1O (centres unmarked) [IX-40]	90.8%	91.1%	104%	–
CCCC1(CCC)OC(=O)C(C(c2cccc(NS(=O)(=O)c3ccc(C#N)cc3)c2)C2CCCC2)=C1O (centres unmarked) [IX-41]	97.4%	96.9%	101%	–
CCCC1(CCC)OC(=O)C(C(c2cccc(NS(=O)(=O)c3cn(C)cn3)c2)C2CCCC2)=C1O (centres unmarked) [IX-42, 1H-Imidazole-4-sulfonamide, N-(3-(cyclopentyl(2,5-dihydro-4-hydroxy-2-oxo-5,5-dipropyl-3-furanyl)methyl)phenyl)-1-methyl-]	94.5%	96%	96.8%	–
N#Cc1ccc(S(=O)(=O)Nc2cccc(C(C3=C(O)C(Cc4ccccc4)(Cc4ccccc4)OC3=O)C3CC3)c2)cc1 (centres unmarked) [IX-43]	98.6%	96.8%	99.8%	–
O=C1OC(Cc2ccccc2)(Cc2ccccc2)C(O)=C1C(c1cccc(NS(=O)(=O)c2ccc(F)cc2)c1)C1CC1 (centres unmarked) [IX-44]	90.3%	92.3%	80.3%	–
Cn1cnc(S(=O)(=O)Nc2cccc(C(C3=C(O)C(Cc4ccccc4)(Cc4ccccc4)OC3=O)C3CC3)c2)c1 (centres unmarked) [IX-45, 1H-Imidazole-4-sulfonamide, N-(3-(cyclopropyl-(5,5-dibenzyl-4-hydroxy-2-oxo-2,5-dihydro-3-furanyl)methyl)phenyl)-1-methyl-]	91.9%	94.3%	80.9%	–
O=C1OC(Cc2ccccc2)(Cc2ccccc2)C(O)=C1C(c1cccc(NS(=O)(=O)c2cccc3cccnc23)c1)C1CC1 (centres unmarked) [IX-46, 8 Quinolinesulfonamide, N-(3-(cyclopropyl-(5,5-dibenzyl-4-hydroxy-2-oxo-2,5-dihydro-3-furanyl)methyl)phenyl)-]	90.3%	87%	81.7%	–
CCCC1(CCC)OC(=O)C(C(c2ccccc2)c2cccc(NS(=O)(=O)c3ccc(C#N)cc3)c2)=C1O (centres unmarked) [IX-47, Benzenesulfonamide, 4-cyano-N-(3-((5,5-dipropyl-4-hydroxy-2-oxo-2,5-dihydro-3-furanyl)-phenyl-methyl)phenyl)-]	93.5%	103%	88.3%	–
CCCC1(CCC)OC(=O)C(C(c2ccccc2)c2cccc(NS(=O)(=O)c3cn(C)cn3)c2)=C1O (centres unmarked) [IX-48, 1H-Imidazole-4-sulfonamide, N-(3-((5,5-dipropyl-4-hydroxy-2-oxo-2,5-dihydro-3 furanyl)-phenyl-methyl)phenyl)-1-methyl-]	94.5%	94.7%	89.1%	–

SMILES	inhibition at 3.3 µM [2]	inhibition at 10 µM [2]	inhibition at 30 µM [2]	further results
CCCC1(CCC)OC(=O)C(C(c2cccc(NS(=O)(=O)c3ccc(C#N)c(C4CCCC4)c3)c2)C2CCCC2)=C1O (centres unmarked) [IX-49, Benzenesulfonamide, 4-cyano 3-cyclpentyl-N-(3-(cyclopentyl(2,5-dihydro-4-hydroxy-2-oxo-5,5-dipropyl-3-furanyl)methyl)phenyl)-]	–	–	–	HIV-1 Protease % Inhibition ([2]; test compound concentration 3.3 μM): 86.97%; HIV-1 Protease % Inhibition ([2]; test compound concentration 10.0 μM): 94.94%; HIV-1 Protease % Inhibition ([2]; test compound concentration 30.0 μM): 78.56%
CCCC1(CCC)OC(=O)C(C(c2cccc(NS(=O)(=O)c3nnnn3-c3ccccc3)c2)C2CC2)=C1O (centres unmarked) [IX-50]	108%	104%	106%	–
CCCC1(CCC)OC(=O)C(C(c2cccc(NS(=O)(=O)c3nc4ccccc4[nH]3)c2)C2CC2)=C1O (centres unmarked) [IX-51]	101%	102%	106%	–
CCCC1(CCC)OC(=O)C(C(c2cccc(NS(=O)(=O)c3ccccn3)c2)C2CC2)=C1O (centres unmarked) [IX-52, 2-Pyridinesulfonamide, N-(3-(cyclopropyl-(4-hydroxy-2-oxo-5,5-dipropyl-2,5-dihydro-furan-3-yl)-methyl)-phenyl)-]	110%	104%	99.9%	–
Cn1cnc(S(=O)(=O)Nc2cccc(C(C3=C(O)C(Cc4ccccc4)(Cc4ccccc4)OC3=O)C(C)(C)C)c2)c1 (centres unmarked) [IX-53]	102%	104%	92%	–
CC(C)(C)C(C1=C(O)C(Cc2ccccc2)(Cc2ccccc2)OC1=O)c1cccc(NS(=O)(=O)c2ccc(C#N)cc2)c1 (centres unmarked) [IX-54]	102%	105%	92.4%	–
CCCC1(CCC)OC(=O)C(C(c2cccc(NS(=O)(=O)c3ncccn3)c2)C2CC2)=C1O (centres unmarked) [IX-55, 2-Pyrimidinesulfonamide, N-(3-(cyclopropyl-(4-hydroxy-2-oxo-5,5-dipropyl-2,5 dihydro-furan-3-yl)-methyl)-phenyl)-]	93.8%	93.8%	96.3%	–
N#Cc1ccc(S(=O)(=O)Nc2cccc(CC3=C(O)C(Cc4ccccc4)(Cc4ccccc4)OC3=O)c2)cc1 [IX-56]	81.9%	101%	92.5%	–
O=C1OC2(CCN(C(=O)OCC3c4ccccc4-c4ccccc43)CC2)C(O)=C1C(c1ccccc1)C1CC1 (centres unmarked) [IX-58, 3-(Cyclopropyl-phenyl-methyl)-4-hydroxy-2-oxo-1-oxa-8-aza-spiro[4.5]dec-3-ene-8-carboxylic acid 9H-fluoren-9-ylmethyl ester]	79.8%	86.8%	87.4%	–
O=C1OC(=CCCc2ccccc2)C(O)=C1C(c1ccccc1)C1CC1 (centres unmarked) [JX-1, 3-(Cyclopropyl-phenyl-methyl)-4-hydroxy-5-(3-phenyl-propyl-idene)-5H-furan-2-one]	94.3%	103%	103%	–
O=C1O/C(=C\c2ccccc2)C(O)=C1C(c1ccccc1)C1CC1 (centres unmarked) [JX-2, 5-Benzylidene-3-(cyclopropyl-phenyl-methyl)-4-hydroxy-5H-furan-2-one]	56.9%	87.7%	103%	–
CC/C=C1\OC(=O)C(C(c2ccccc2)C2CC2)=C1O (centres unmarked) [JX-3, 3-(Cyclopropyl-phenyl-methyl)-4-hydroxy-5-propylidene-5H-furan-2-one]	43.2%	65.3%	96.3%	–
CCC/C=C1\OC(=O)C(C(c2ccccc2)C2CC2)=C1O (centres unmarked) [JX-4, 5-Butylidene-3-(cyclopropyl-phenyl-methyl)-4-hydroxy-5H-furan-2-one]	85.9%	99.2%	113%	–
CC(C)(C)OC(=O)N1CCC2(CC1)OC(=O)C(C(c1ccccc1)C1CC1)=C2O (centres unmarked) [OX-1, 3-(Cyclopropyl-phenyl-methyl)-4-hydroxy-2-oXo-1-oca-8-aza-spiro[4.5]dec-3-ene-8-carboxylic acid tert-butyl ester]	78.8%	89.9%	100%	–
O=C1OC2(CCNCC2)C(O)=C1C(c1ccccc1)C1CC1 (centres unmarked) [OX-2, 3-(Cyclopropyl-phenyl-methy1)-4-hydroxy--1-oXa-8-aza-spiro[4.5]dec-3-en-2-one]	14.9%	34.1%	59%	–
CC(C)CC(=O)N[C@H](C(=O)N[C@H](C(=O)N[C@@H](CC(C)C)[C@@H](O)CC(=O)N[C@@H](C)C(=O)N[C@@H](CC(C)C)[C@@H](O)CC(=O)O)C(C)C)C(C)C [Pepstatin A] (Isovaleryl-VV[Sta]A[Sta]-OH)	–	–	–	inhibition of HIV-I protease [4]: disclosed as an inhibitor of HIV-I protease
